Results on 1 compound are retold here after the NIST ThermoML archive (doi:10.1016/j.fluid.2015.09.019).

± gives the expanded uncertainty stated by the source.

The conditions of data set [1]: Crystal; DTA.
Data set [2] is described as follows: Molar enthalpy of transition or fusion. As to conditions: Crystal; DSC.

Regarding `CC1=CC(=O)c2ccccc2C1=O` [2-methyl-1,4-naphthalenedione], the Normal melting temperature in data set [1] was determined as 107.00 ± 1.1 °C. In addition, in data set [2], the “Molar enthalpy of transition or fusion” value turned out to be 20.3 ± 0.92 kJ/mol.
